In US20200384003A1, “TRITERPENOID-CONTAINING PHARMACEUTICAL COMPOSITION AND USE THEREOF” (SHANGHAI LANMU CHEMICALS CO., LTD., priority 2017, published 2020):
Residue numbers refer to the chain shown, from its start.

Tests used:
[1] = tested on: cataract lens; details: direct administration to the eyeball or lens, primates; cited from earlier work
[2] = tested on: diabetic metabolite cataract; experiment: Therapeutic effect on diabetic metabolite cataract, streptozotocin model (Example 11); assay type: in vivo, SD rats; details: right eye of diabetic rat, pictures before and after 2 months of treatment (FIG. 25-29)
[3] = tested on: traumatic cataract; experiment: Therapeutic effect of eye ointment on traumatic cataract (Example 10); assay type: in vivo, SD rats; details: pictures before and after administration (FIG. 22-24, Table 10)
[4] = Heat stability at 80° C. versus 4° C., HPLC and appearance (Example 18); assay type: physicochemical; details: for content after heat storage / initial experiment purity: HPLC; for initial experiment purity: stored at 4° C.
Protocol: The heatl stabilities of inotodiol and trametenolic acid were tested, and lanosterol was used as a reference at the same time.

[5] = biological target: T1, mutated lens protein (αB-crystallin R120G) (Homo sapiens, UniProt P02511, R120G); experiment: Intracellular mutated lens protein aggregation inhibition experiment in transfected HeLa cells (Example 21); assay type: cell-based; details: 10 μM, treated 3.5 hours, then 6.5 h normal medium, fewer + = better
T1 construct: expressed in transfected cells; host or cells: HeLa
T1 sequence (P02511 1-175 R120G): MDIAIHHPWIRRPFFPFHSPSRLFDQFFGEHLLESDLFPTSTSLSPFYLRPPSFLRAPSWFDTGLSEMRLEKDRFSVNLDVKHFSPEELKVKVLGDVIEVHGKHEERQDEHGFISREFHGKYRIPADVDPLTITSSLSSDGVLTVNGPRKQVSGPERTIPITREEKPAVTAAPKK
Protocol: In this example, apart of the specific compounds obtained in Example 19 and Example 20 were selected for intracellular mutated lens protein (αB-crystallin R120G) aggregation inhibition experiment (experimental method was described in Chinese patent CN201580057679). The aggregation inhibition activities of compound I and compound II in the present invention on lens protein mutants were evaluated to screen a compound which was effective in treating related disease such as cataract.
The tumor cell line HeLa was selected as a host cell transfected with the mutant lens protein (αB-crystallin […]) expression plasmid, the medium was DMEM with […], and the culture conditions were 37° C., saturated humidity and 5% carbon dioxide cell incubator. Mycoplasma was negative. The transfection process is that the appropriate number of HeLa cells were inoculated on the pre-coated slides. When fully adherent cells grew to about 75% cell density, the expression vector was transfected with liposome. After 4 hours of transfection, the medium was changed to normal medium. Then the HeLa cells were cultured in the cell incubator for 13 hours to induce the expression of exogenous mutant lens protein. After changing the medium, the replaced new medium contained various compounds of the formula I and formula II of the present invention to be tested (DMSO was used as solvent in all mother fluid), wherein the final concentration of each compound was 10 μM, the negative control was 1.5% DMSO solvent, and the positive control was lanosterol (10 μM). The HeLa cells were treated with the medium containing the test compound, 1.5% DMSO solvent and lanosterol for 3.5 hours, respectively, and the normal fresh medium containing no DMSO, test compound or lanosterol was exchanged and the cells were cultured for another 6.5 h, then Anti-p62 antibody and DAPI were used for routine cellular immunofluorescence detection. The field of vision of three positions per slide was randomly selected, the ratio of cells containing aggregated crystalline proteins (lens protein aggregates) was calculated, and the effect of each test compound on intracellular aggregation of mutant lens proteins was finally determined, the results were shown in Table 19.

[6] = Pharmacokinetic study, drug in aqueous humor after eye glass cavity injection (Example 5); assay type: in vivo; details: SD rats, 5 μl injected into each glass cavity, detected 10 days after the surgery
Protocol: SD rats (about 10 weeks old, male or female) were anesthetized by intraperitoneal injection of pentobarbital sodium and pupil was dilated, then eye glass cavity injection surgery was performed. All animals were injected with the same kind of drugs in both eyes. The amount of drug injected into each glass cavity was 5 μl, and the number of test animals per drug formulation (Example 1, Example 2 and Comparative Example 1) was four, and the drug metabolism in the aqueous humor was detected 10 days after the surgery.

[7] = tested on: cataract; details: sustained-release lanosterol drug, dogs; cited from earlier work
[8] = biological target: T2, wild-type αB lens protein aggregate (WT αB) (Homo sapiens, UniProt P02511); experiment: Dissolution of lens protein aggregates, ThT fluorescence (Example 22); assay type: biochemical; details: liposome form, final concentration 125 μM, 24 hours, versus blank liposomes (FIG. 33)
T2 sequence (P02511 1-175): T1 sequence (P02511 1-175 R120G) with G120R
Protocol: The experimental method was as follows: Inotodiol was used as test compound, and its dissolution effect on wild-type αB lens protein aggregate (WT αB) was measured, and lanosterol was used as positive control.
In the present example, the formulations of pharmaceutical composition in the test group and the control group were liposome, wherein the component of the formulation of test group was 40 mg of DPPC, 10 mg of cholesterol and 10 mg of test compound; the component of the formulation of positive control group was 40 mg of DPPC, 10 mg of cholesterol and 10 mg of lanosterol; the component of formulation of the blank control group was 40 mg of DPPC and 10 mg of cholesterol. […]
The analysis of compound concentration in the liposome formulation: The obtained liposome solution was demulsificated with 4 to 5 volumes of methanol solution to afford clear solution. The concentration of compound in the liposome was determined by HPLC method, and the chromatographic conditions are as follows. […] After the comparative analysis, the concentration of corresponding compound in the liposome preparation was determined.
The induction of protein aggregates is as follows. […] After the treatment, ThT fluorescence was used to detect the effect of different compounds on αB lens protein aggregates.

[9] = 80° C. for 1 week, compared with 4° C.
[10] = 80° C. for 2 weeks, compared with 4° C.

Row | Compound | transparency of cataract lens [1] | turbid area of lens / course of cataract after administration [2] | cortical turbidity area of eyes with traumatic cataract, transparency after administration [3] | appearance after heat storage [4, 9] | purity after heat storage ([4]; 80° C. for 2 weeks) [%] | appearance after heat storage [4, 10] | appearance after heat storage ([4]; 80° C. for 1 day) | content after heat storage ([4]; 80° C. for 1 day) [%] | content after heat storage ([4]; 80° C. for 2 day) [%] | content after heat storage ([4]; 80° C. for 3 day) [%] | initial experiment purity [4] [%] | Inhibitory effect (percentage of cells containing aggregated proteins) [5] | decrease of drug concentration in aqueous humor compared with initial concentration immediately after injection [6] | cataract treatment effect [7] | ThT fluorescence signal of αB lens protein aggregates [8]
1 | CC(C)=CCC[C@@H](C)[C@H]1CC[C@@]2(C)C3=C(CC[C@]12C)[C@@]1(C)CC[C@H](O)C(C)(C)[C@@H]1CC3 [lanosterol, reference compound] | does not restore or improve the transparency of cataract lens in primates | increased | could restore transparency of lens with slight turbidity, but no obvious reversal of the disease has been observed in severe cataract | one third of the lanosterol turned yellow | 32 | All lanosterol turned yellow | the powder became hard and formed into a large piece | 73 | 48 | 44 | 96 | +++ (>60% of the cells in the field of vision contain protein aggregates) | 82%±14.7% | has a cataract treatment effect on dogs only when combined with high-frequency intravitreal injection | increased the ThT fluorescence signal
2 | CC(C)=CCC(O)[C@@H](C)[C@H]1CC[C@@]2(C)C3=C(CC[C@]12C)[C@@]1(C)CC[C@H](O)C(C)(C)C1CC3 (stereo partly drawn) [Inotodiol, inotodiol] | – | – | – | did not change | – | began to turn yellow | – | 88 | 68 | 67 | 94 | + (<30% of the cells in the field of vision contained protein aggregates) | 11%±2.3% | – | significantly reduce the ThT fluorescence signal
